“And” between values parts separate entries of the source, which are not always exact repeats. Equal entries are not always repeated.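 The concentration for 50% growth inhibition is given as GI50. TGI is the concentration that stops growth completely.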
Key:
Test in all cases: NCI anticancer screen, dose series, 384-well format
[1] = system: MALME-3M melanoma
[2] = system: M14 melanoma
[3] = system: EKVX NSCLC
[4] = system: HCC-2998 colon
[5] = system: RXF 393 renal
[6] = system: HOP-62 NSCLC
[7] = system: PC-3 prostate
[8] = system: KM12 colon
[9] = system: NCI-H23 lung
[10] = system: SK-OV-3 ovarian
[11] = system: NCI-H460 NSCLC
[12] = system: HT29 colon
[13] = system: A549 NSCLC
[14] = system: RPMI-8226 leukemia
[15] = system: ACHN renal
[16] = system: SNB-19 CNS
[17] = system: SK-MEL-28 melanoma
[18] = system: HCT-15 colon
[19] = system: TK-10 renal
[20] = system: BT-549 breast
[21] = system: CAKI-1 renal
[22] = system: 786-0 renal
[23] = system: HCT-116 colon
[24] = system: HL-60(TB) leukemia
[25] = system: A498 renal
[26] = system: SW-620 colon
[27] = system: NCI-H322M lung
[28] = system: NCI-H226 lung
[29] = system: SK-MEL-2 melanoma
[30] = system: UACC-62 melanoma
[31] = system: OVCAR-8 ovarian
[32] = system: CCRF-CEM leukemia
[33] = system: LOX IMVI melanoma
[34] = system: MCF7 breast
[35] = system: SNB-75 CNS
[36] = system: NCI-H522 lung
[37] = system: SK-MEL-5 melanoma
[38] = system: IGROV1 ovarian
[39] = system: OVCAR-4 ovarian
[40] = system: U251 glioblastoma
[41] = system: UACC-257 melanoma
[42] = system: K-562 leukemia
[43] = system: DU-145 prostate
[44] = system: SN12C renal
[45] = system: COLO 205 colon
[46] = system: OVCAR-3 ovarian
[47] = system: SF-295 CNS
[48] = system: MOLT-4 leukemia
[49] = system: HS 578T breast
[50] = system: HOP-92 NSCLC
[51] = system: MDA-MB-435 melanoma
[52] = system: NCI/ADR-RES ovarian
[53] = system: SF-268 CNS
[54] = system: SF-539 CNS
[55] = system: MDA-MB-468 breast
[56] = system: UO-31 renal
[57] = system: OVCAR-5 ovarian
[58] = system: MDA-MB-231 breast
[59] = system: T-47D breast

## Cc1ccc(S(=O)(=O)Oc2ccc3sc4c(CO)ccc(NCCN(C)C)c4c(=O)c3c2)cc1
[1]
  GI50: 2.15 µM
  TGI: 3.61 µM
[2]
  GI50: 2.16 µM
  TGI: 3.61 µM
[3]
  GI50: 1.88 µM
  TGI: 3.3 µM
[4]
  GI50: 1.94 µM
  TGI: 3.36 µM
[5]
  GI50: 1.99 µM
  TGI: 3.42 µM
[6]
  GI50: 2.08 µM
  TGI: 3.52 µM
[7]
  GI50: 2.01 µM
  TGI: 3.45 µM
[8]
  GI50: 1.87 µM
  TGI: 3.3 µM
[9]
  GI50: 2.03 µM
  TGI: 3.46 µM
[10]
  GI50: 1.94 µM
  TGI: 3.38 µM
[11]
  GI50: 1.9 µM
  TGI: 3.34 µM
[12]
  GI50: 1.8 µM
  TGI: 3.21 µM
[13]
  GI50: 1.84 µM
  TGI: 3.28 µM
[14]
  GI50: 1.92 µM
  TGI: 3.33 µM
[15]
  GI50: 1.89 µM
  TGI: 3.33 µM
[16]
  GI50: 2.21 µM
  TGI: 3.69 µM
[17]
  GI50: 2.16 µM
  TGI: 3.62 µM
[18]
  GI50: 2.07 µM
  TGI: 3.53 µM
[19]
  GI50: 1.99 µM
  TGI: 3.41 µM
[20]
  GI50: 1.89 µM
  TGI: 3.31 µM
[21]
  GI50: 1.9 µM
  TGI: 3.34 µM
[22]
  GI50: 1.85 µM
  TGI: 3.27 µM
[23]
  GI50: 2.14 µM
  TGI: 3.62 µM
[24]
  GI50: 1.59 µM
  TGI: 2.95 µM
[25]
  GI50: 1.98 µM
  TGI: 3.41 µM
[26]
  GI50: 1.84 µM
  TGI: 3.27 µM
[27]
  GI50: 2.12 µM
  TGI: 3.57 µM
[28]
  GI50: 1.47 µM
  TGI: 2.8 µM
[29]
  GI50: 2.07 µM
  TGI: 3.51 µM
[30]
  GI50: 2.1 µM
  TGI: 3.56 µM
[31]
  GI50: 1.63 µM
  TGI: 3.02 µM
[32]
  GI50: 1.62 µM
  TGI: 2.99 µM
[33]
  GI50: 1.71 µM
  TGI: 3.11 µM
[34]
  GI50: 1.72 µM
  TGI: 3.11 µM
[35]
  GI50: 2.35 µM
  TGI: 3.82 µM
[36]
  GI50: 2.2 µM
  TGI: 3.66 µM
[37]
  GI50: 1.64 µM
  TGI: 3.02 µM
[38]
  GI50: 1.79 µM
  TGI: 3.18 µM
[39]
  GI50: 2.24 µM
  TGI: 3.7 µM
[40]
  GI50: 2.22 µM
  TGI: 3.7 µM
[41]
  GI50: 2.84 µM
  TGI: 4.32 µM
[42]
  GI50: 1.91 µM
  TGI: 3.33 µM
[43]
  GI50: 2.09 µM
  TGI: 3.54 µM
[44]
  GI50: 1.64 µM
  TGI: 3.01 µM
[45]
  GI50: 2.14 µM
  TGI: 3.6 µM
[46]
  GI50: 1.97 µM
  TGI: 3.39 µM
[47]
  GI50: 1.96 µM
  TGI: 3.38 µM
[48]
  GI50: 1.79 µM
  TGI: 3.18 µM
[49]
  GI50: 2.01 µM
  TGI: 3.45 µM
[50]
  GI50: 2.12 µM
  TGI: 3.57 µM
[51]
  GI50: 2.13 µM
  TGI: 3.57 µM
[52]
  GI50: 2.06 µM
  TGI: 3.5 µM
[53]
  GI50: 2.2 µM
  TGI: 3.66 µM
[54]
  GI50: 2.08 µM
  TGI: 3.54 µM
[55]
  GI50: 3.82 µM
  TGI: 5.27 µM

## CNC(=O)c1ccc(Nc2ncc(C(F)(F)F)c(NCc3nccnc3N(C)S(C)(=O)=O)n2)cc1
[1]
  GI50: 2.12 µM and 2.65 µM
  TGI: 4.88 µM and 6.18 µM
[2]
  GI50: 1.29 µM and 1.53 µM
  TGI: 3.78 µM and 4.15 µM
[3]
  GI50: 1.58 µM and 1.89 µM
  TGI: 4.56 µM and 5.27 µM
[4]
  GI50: 1.5 µM and 1.74 µM
  TGI: 4.34 µM and 4.68 µM
[5]
  GI50: 1.15 µM and 1.17 µM
  TGI: 2.71 µM and 2.73 µM
[6]
  GI50: 2.04 µM and 2.11 µM
  TGI: 6.31 µM and 7.25 µM
[7]
  GI50: 2.11 µM and 3.35 µM
  TGI: 6.15 µM and 10.7 µM
[8]
  GI50: 0.25 µM and 0.239 µM
  TGI: 2.36 µM and 2.86 µM
[9]
  GI50: 1.59 µM and 1.74 µM
  TGI: 3.17 µM and 3.43 µM
[10]
  GI50: 1.31 µM and 1.77 µM
  TGI: 5.3 µM and 9.75 µM
[11]
  GI50: 1.47 µM and 1.67 µM
  TGI: 3.13 µM and 3.37 µM
[56]
  GI50: 1.82 µM and 1.98 µM
  TGI: 4.84 µM and 4.75 µM
[12]
  GI50: 2.11 µM and 2.25 µM
  TGI: 5.19 µM and 5.71 µM
[13]
  GI50: 2.35 µM and 2.24 µM
  TGI: 6.47 µM and 6.06 µM
[14]
  GI50: 1.81 µM and 2.26 µM
  TGI: 3.21 µM and 3.75 µM
[15]
  GI50: 1.91 µM and 2.09 µM
  TGI: 9.33 µM and 9.55 µM
[16]
  GI50: 3.05 µM and 3.92 µM
  TGI: 13.3 µM and 12.4 µM
[17]
  GI50: 1.78 µM and 2.34 µM
  TGI: 3.65 µM and 4.72 µM
[57]
  GI50: 2.14 µM and 2.41 µM
  TGI: 6.77 µM and 7.25 µM
[18]
  GI50: 1.84 µM and 2.79 µM
  TGI: 5.7 µM and 8.92 µM
[19]
  GI50: 1.77 µM and 2.24 µM
  TGI: 5.22 µM and 6.82 µM
[20]
  GI50: 1.58 µM and 1.99 µM
  TGI: 3.4 µM and 4.08 µM
[21]
  GI50: 1.3 µM and 1.48 µM
  TGI: 4.51 µM and 4.9 µM
[22]
  GI50: 2.4 µM and 2.39 µM
  TGI: 10.8 µM and 8.97 µM
[23]
  GI50: 1.75 µM and 1.94 µM
  TGI: 6.22 µM and 4.86 µM
[24]
  GI50: 1.61 µM and 2.02 µM
  TGI: 2.97 µM and 3.47 µM
[25]
  GI50: 1.08 µM and 1.35 µM
  TGI: 4.63 µM and 5.83 µM
[26]
  GI50: 2.02 µM and 2.46 µM
  TGI: 4.39 µM and 5.13 µM
[27]
  GI50: 2.04 µM and 2.2 µM
  TGI: 5.32 µM and 6 µM
[28]
  GI50: 2.05 µM
  TGI: 11.9 µM and 7.96 µM
[30]
  GI50: 1.19 µM and 1.4 µM
  TGI: 2.49 µM and 2.81 µM
[31]
  GI50: 2.73 µM and 3.01 µM
  TGI: 7.71 µM and 8.76 µM
[32]
  GI50: 1.71 µM and 2.1 µM
  TGI: 3.28 µM and 3.73 µM
[33]
  GI50: 1.53 µM and 1.65 µM
  TGI: 3.34 µM and 3.52 µM
[34]
  GI50: 2.21 µM and 1.9 µM
  TGI: 7.68 µM and 5.85 µM
[35]
  GI50: 1.28 µM and 1.78 µM
  TGI: 3.69 µM and 4.75 µM
[36]
  GI50: 1.94 µM and 2.47 µM
  TGI: 3.63 µM and 4.42 µM
[58]
  GI50: 2.38 µM and 3.04 µM
  TGI: 11.7 µM and 14.6 µM
[37]
  GI50: 1.34 µM and 1.25 µM
  TGI: 2.69 µM and 2.64 µM
[38]
  GI50: 0.558 µM and 0.673 µM
  TGI: 5.91 µM and 8.38 µM
[39]
  GI50: 2.31 µM and 3.19 µM
  TGI: 10.2 µM and 14.1 µM
[40]
  GI50: 2.17 µM and 2.96 µM
  TGI: 7.56 µM and 10.2 µM
[41]
  GI50: 2.06 µM and 2.93 µM
  TGI: 5.32 µM and 8.36 µM
[42]
  GI50: 3.45 µM and 3.44 µM
  TGI: 16.8 µM
[43]
  GI50: 1.71 µM and 2.2 µM
  TGI: 10.7 µM and 11.1 µM
[44]
  GI50: 1.94 µM and 2.36 µM
  TGI: 4.12 µM and 4.97 µM
[45]
  GI50: 2.03 µM and 2.41 µM
  TGI: 5.34 µM and 5.98 µM
[46]
  GI50: 1.42 µM and 1.98 µM
  TGI: 3.94 µM and 4.84 µM
[47]
  GI50: 2.72 µM and 2.75 µM
  TGI: 9.23 µM and 8.16 µM
[48]
  GI50: 1.95 µM and 2.16 µM
  TGI: 3.58 µM and 3.84 µM
[49]
  GI50: 1.3 µM and 0.449 µM
  TGI: 3.1 µM and 2.42 µM
[50]
  GI50: 2.21 µM and 2.54 µM
  TGI: 6.44 µM and 6.5 µM
[51]
  GI50: 2.88 µM and 4.55 µM
  TGI: 11.8 µM and 14.4 µM
[52]
  GI50: 13.5 µM and 16 µM
  TGI: 40.5 µM and 35.5 µM
[53]
  GI50: 1.03 µM and 0.681 µM
  TGI: 2.35 µM and 2.26 µM
[54]
  GI50: 1.55 µM and 1.95 µM
  TGI: 3.29 µM and 3.85 µM
[59]
  GI50: 2.5 µM and 2.67 µM
  TGI: 6.9 µM and 7.18 µM
[55]
  GI50: 1.35 µM and 1.79 µM
  TGI: 2.95 µM and 3.71 µM

Reference: PubChem BioAssay (NCI)
